How the values were obtained:
[1] = molecular target: T1, HCV polymerase (NS5B) type 1b (Hepatitis C virus genotype 1b, UniProt P26663); experiment: Assay of enzyme (HCV polymerase) inhibitory activity, type 1b enzyme; format: biochemical, HCV BK strain (type 1b); conditions: HCV polymerase inhibitory activity IC50, 1b, type 1b enzyme
T1 construct: a region encoding NS5B (J Virol 1991 March, 65(3), 1105-13, 544 amino acids after deletion of 47 amino acids on the C-terminal); 6xHis (C); made in house; host or cells: Escherichia coli
Summary of the method: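 IC50 derived from [3H]UTP incorporation into TCA-insoluble RNA, compared with and without test compound. Reaction (25 °C, 60 min, Tris pH 7.5, 5 mM MgCl2): E. coli-expressed 1b NS5B Δ47 with His tag at 0.5 μg/ml, 5 μg/ml run-off substrate RNA, ATP/GTP/CTP 50 μM, UTP 2 μM.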

[2] = molecular target: T2, HCV polymerase (NS5B) type 1a (Hepatitis C virus genotype 1a, UniProt P26664); experiment: Assay of enzyme (HCV polymerase) inhibitory activity, type 1a enzyme; format: biochemical, HCV type 1a (cloned from the blood of patients); conditions: HCV polymerase inhibitory activity IC50, 1a, type 1a enzyme
T2 construct: made in house; host or cells: Escherichia coli (by the 'similar method' of the 1b enzyme)
Summary of the method: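 Reactions ran 60 min at 25° C in 20 mM Tris-HCl pH 7.5, 5 mM MgCl2, 50 mM NaCl, holding genotype 1a NS5B (1.5 μg/ml, Δ47 C-terminus, 6His), substrate RNA 5 μg/ml, UTP 2 μM with tritiated UTP and other NTPs 50 μM. IC50 derived from incorporated radiolabel in filter-trapped RNA relative to uninhibited reaction.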

Structure (SMILES) | IC50 [1] | IC50 [2]
O=C(NCc1ccc(OC(F)(F)F)cc1)[C@H]1CN(c2nn3c(C(F)(F)F)cc(=O)nc3s2)CCN1S(=O)(=O)c1ccc(OC(F)(F)F)cc1 [Example 1049, (R)-4-(7-oxo-5-trifluoromethyl-7H-[1,3,4]thiadiazolo[3,2-a]pyrimidin-2-yl)-1-(4-trifluoromethoxy-benzenesulfonyl)-piperazine-2-carboxylic acid 4-trifluoromethoxy-benzylamide] | < 100 nM | < 100 nM
COc1ccc2nc(N3CCN(S(=O)(=O)c4ccc(OC(F)(F)F)cc4)[C@@H](C(=O)NCc4ccc(OC(F)(F)F)cc4)C3)sc2n1 [Example 1050, (R)-4-(5-methoxy-thiazolo[5,4-b]pyridin-2-yl)-1-(4-trifluoromethoxy-benzenesulfonyl)-piperazine-2-carboxylic acid 4-trifluoromethoxy-benzylamide] | 100 to 1000 nM | 100 to 1000 nM
Cc1ncc2sc(N3CCN(S(=O)(=O)c4ccc(OC(F)(F)C(F)F)cc4)[C@@H](C(=O)NCc4ccc(OC(F)(F)F)cc4)C3)nc2n1 [Example 1051, (R)-4-(5-methyl-thiazolo[4,5-d]pyrimidin-2-yl)-1-[4-(1,1,2,2-tetrafluoro-ethoxy)-benzenesulfonyl]-piperazine-2-carboxylic acid 4-trifluoromethoxy-benzylamide] | < 100 nM | < 100 nM
O=C(NCc1ccc(OC(F)(F)F)cc1)[C@H]1CN(c2nc3nc(CO)ncc3s2)CCN1S(=O)(=O)c1ccc(C(F)(F)F)cc1 [Example 1052, (R)-4-(5-hydroxymethyl-thiazolo[4,5-d]pyrimidin-2-yl)-1-(4-trifluoromethyl-benzenesulfonyl)-piperazine-2-carboxylic acid 4-trifluoromethoxy-benzylamide] | < 100 nM | < 100 nM
O=C(NCc1ccc(OC(F)F)cc1)[C@H]1CN(c2nn3ccc(=O)nc3s2)CCN1S(=O)(=O)c1ccc(OC(F)(F)F)cc1 [Example 1053, (R)-4-(7-oxo-7H-[1,3,4]thiadiazolo[3,2-a]pyrimidin-2-yl)-1-(4-trifluoromethoxy-benzenesulfonyl)-piperazine-2-carboxylic acid 4-difluoromethoxy-benzylamide] | < 100 nM | < 100 nM
CON(C)C(=O)c1ncc2sc(N3CCN(S(=O)(=O)c4ccc(OC(F)(F)F)cc4)[C@@H](C(=O)NCc4ccc(OC(F)(F)F)cc4)C3)nc2n1 [Example 1054, 2-[(R)-4-(4-trifluoromethoxy-benzenesulfonyl)-3-(4-trifluoromethoxy-benzylcarbamoyl)-piperazin-1-yl]-thiazolo[4,5-d]pyrimidine-5-carboxylic acid methoxy-methyl-amide] | < 100 nM | < 100 nM
COCc1nc(N)c2sc(N3CCN(S(=O)(=O)c4ccc(OC(F)(F)F)cc4)[C@@H](C(=O)NCc4ccc(OC(F)(F)F)cc4)C3)nc2n1 [Example 1055, (R)-4-(7-amino-5-methoxymethyl-thiazolo[4,5-d]pyrimidin-2-yl)-1-(4-trifluoromethoxy-benzenesulfonyl)-piperazine-2-carboxylic acid 4-trifluoromethoxy-benzylamide] | < 100 nM | < 100 nM
O=C(NCc1ccc(OC(F)(F)F)cc1)[C@H]1CN(c2nc3nc(CN4CCCC4)ncc3s2)CCN1S(=O)(=O)c1ccc(OC(F)(F)F)cc1 [Example 1056, (R)-4-(5-pyrrolidin-1-ylmethyl-thiazolo[4,5-d]pyrimidin-2-yl)-1-(4-trifluoromethoxy-benzenesulfonyl)-piperazine-2-carboxylic acid 4-trifluoromethoxy-benzylamide] | < 100 nM | < 100 nM
O=C(NCc1ccc(OC(F)F)cc1)[C@H]1CN(c2nn3ccc(=O)nc3s2)CCN1S(=O)(=O)c1ccc(C(F)(F)F)cc1 [Example 1057, (R)-4-(7-oxo-7H-[1,3,4]thiadiazolo[3,2-a]pyrimidin-2-yl)-1-(4-trifluoromethyl-benzenesulfonyl)-piperazine-2-carboxylic acid 4-difluoromethoxy-benzylamide] | < 100 nM | < 100 nM
O=C(NCc1ccc(OC(F)(F)F)cc1)[C@H]1CN(c2nn3ccc(=O)nc3s2)CCN1S(=O)(=O)c1ccc(OC(F)F)cc1 [Example 1058, (R)-1-(4-difluoromethoxy-benzenesulfonyl)-4-(7-oxo-7H-[1,3,4]thiadiazolo[3,2-a]pyrimidin-2-yl)-piperazine-2-carboxylic acid 4-trifluoromethoxy-benzylamide] | < 100 nM | < 100 nM
O=C(NCc1ccc(OC(F)(F)F)cc1)[C@H]1CN(c2nn3ccc(=O)nc3s2)CCN1S(=O)(=O)c1ccc(C(F)(F)F)cc1 [Example 1059, (R)-4-(7-oxo-7H-[1,3,4]thiadiazolo[3,2-a]pyrimidin-2-yl)-1-(4-trifluoromethyl-benzenesulfonyl)-piperazine-2-carboxylic acid 4-trifluoromethoxy-benzylamide] | < 100 nM | < 100 nM
CC(O)c1ncc2sc(N3CCN(S(=O)(=O)c4ccc(OC(F)(F)F)cc4)[C@@H](C(=O)NCc4ccc(OC(F)(F)F)cc4)C3)nc2n1 (stereo partly drawn) [Example 1060, (R)-4-[5-(1-hydroxy-ethyl)-thiazolo[4,5-d]pyrimidin-2-yl]-1-(4-trifluoromethoxy-benzenesulfonyl)-piperazine-2-carboxylic acid 4-trifluoromethoxy-benzylamide] | < 100 nM | < 100 nM
O=C(NCc1ccc(OC(F)F)c(F)c1)[C@H]1CN(c2nc3nc(C(F)(F)F)ncc3s2)CCN1S(=O)(=O)c1ccc(OC(F)(F)F)cc1 [Example 1061, (R)-1-(4-trifluoromethoxy-benzenesulfonyl)-4-(5-trifluoromethyl-thiazolo[4,5-d]pyrimidin-2-yl)-piperazine-2-carboxylic acid 4-difluoromethoxy-3-fluoro-benzylamide] | < 100 nM | < 100 nM
O=C(NCc1ccc(OC(F)(F)F)cc1)[C@H]1CN(c2nc3ccc(=O)[nH]c3s2)CCN1S(=O)(=O)c1ccc(OC(F)(F)F)cc1 [Example 1062, (R)-4-(5-oxo-4,5-dihydro-thiazolo[5,4-b]pyridin-2-yl)-1-(4-trifluoromethoxy-benzenesulfonyl)-piperazine-2-carboxylic acid 4-trifluoromethoxy-benzylamide] | < 100 nM | < 100 nM
O=C(NCc1ccc(OC(F)F)cc1)[C@H]1CN(c2nn3ccc(=O)nc3s2)CCN1S(=O)(=O)c1ccc(OC(F)F)cc1 [Example 1063, (R)-1-(4-difluoromethoxy-benzenesulfonyl)-4-(7-oxo-7H-[1,3,4]thiadiazolo[3,2-a]pyrimidin-2-yl)-piperazine-2-carboxylic acid 4-difluoromethoxy-benzylamide] | < 100 nM | < 100 nM
CCCc1ccc(CNC(=O)[C@H]2CN(c3nc4c(C(=O)OCC)cncc4s3)CCN2S(=O)(=O)c2ccc(CC)cc2)cc1 [Example 1064, 2-[(R)-4-(4-ethyl-benzenesulfonyl)-3-(4-propyl-benzylcarbamoyl)-piperazin-1-yl]-thiazolo[5,4-c]pyridine-7-carboxylic acid ethyl ester] | < 100 nM | < 100 nM
CCCc1ccc(CNC(=O)[C@H]2CN(c3nc4c(C(=O)O)cncc4s3)CCN2S(=O)(=O)c2ccc(CC)cc2)cc1 [Example 1065, 2-[(R)-4-(4-ethyl-benzenesulfonyl)-3-(4-propyl-benzylcarbamoyl)-piperazin-1-yl]-thiazolo[5,4-c]pyridine-7-carboxylic acid] | < 100 nM | < 100 nM
